# Test results: PubChem BioAssay AID1549 (Sanford-Burnham Center for Chemical Genomics, 2009)
# The source made the active and inactive calls. No rule for the calls is given here.
# Biological target: Influenza A virus M2 proton channel (A/TW/4845/1999 H1N1)
# Experiment: M2 proton channel binding, NMR based, influenza A virus H1N1 strain (AID 1549)
# Details: NMR binding screen, M2 protein
row,SMILES,Kd
1,CC(C)NC(=S)NCc1cnn(C)c1,> 4 mM (inactive)
2,Fc1ccc(NC2=NCCS2)cc1Cl,> 4 mM (inactive)
3,O=C(Nc1nccs1)c1cccnc1,> 4 mM (inactive)
4,CC(=O)Nc1ccc(C(=O)N2CCOCC2)cc1Cl,> 4 mM (inactive)
5,O=C(Nc1c[nH]c(=O)[nH]c1=O)c1ccccc1F,> 4 mM (inactive)
6,NC(=O)CC(=O)NC12CC3CC(CC(C3)C1)C2,> 4 mM (inactive)
7,NC(=O)CCS(=O)(=O)CCN1CCOCC1,> 4 mM (inactive)
8,Cc1nnc2sc(-c3ccco3)nn12,> 4 mM (inactive)
9,CC1(O)CC2C=CC1C2 (configuration not stated),> 4 mM (inactive)
10,COc1cccc(/C=C/C(=O)O)c1C(C)C,> 4 mM (inactive)
11,O=S1(=O)C=CC(Nc2ccccc2)C1 (configuration not stated),> 4 mM (inactive)
12,CN(c1ccc(C(=O)N2CCCCC2)cc1)S(C)(=O)=O,> 4 mM (inactive)
13,Cn1c(=O)cc(O)c2ccccc21,> 4 mM (inactive)
14,NC(=O)c1cccc2c1OCCO2,> 4 mM (inactive)
15,OC[C@@H](O)[C@@H](O[C@@H]1O[C@H](CO)[C@@H](O)[C@H](O)[C@H]1O)[C@H](O)[C@@H](O)CO,> 4 mM (inactive)
16,Cn1nc(C(=O)N2CCOCC2)c2ccccc2c1=O,> 4 mM (inactive)
17,Cc1cc(C)nc(Nc2n[nH]c(Cc3ccccc3)n2)n1,> 4 mM (inactive)
18,O=C(Nc1ccon1)c1cccc(C(F)(F)F)c1,> 4 mM (inactive)
19,Cn1c(=O)c2c(ncn2CCN)n(C)c1=O,> 4 mM (inactive)
20,COc1cc2c(cc1-c1coc3c4c(c(OC)cc3c1=O)OC(C)(C)C=C4)OCO2,> 4 mM (inactive)
21,Cn1c(CN2CC(c3ccccc3)CC2=O)n[nH]c1=S (configuration not stated),> 4 mM (inactive)
22,O=C1NC(=S)N/C1=C\c1cccnc1,> 4 mM (inactive)
23,COc1ccc2c(c1)OCC(Cc1ccc(OC)c(OC)c1)C2=O (configuration not stated),> 4 mM (inactive)

row,SMILES,Kd
1,C/C(O)=c1/sc2cc(C)nc(=N)n2c1=O,> 4 mM (inactive)
2,Nc1ccc(Cc2ccncc2)cc1,> 4 mM (inactive)
3,Oc1ccc2nonc2c1,> 4 mM (inactive)
4,O=C(O)CN1C(=O)c2ccc(C(=O)O)cc2C1=O,> 4 mM (inactive)
5,Nc1ccc(-n2cccc2)cc1,> 4 mM (inactive)
6,O=C1CS/C(=N/S(=O)(=O)c2ccccc2)N1,> 4 mM (inactive)
7,CP(C)(=O)c1cccc(C(=O)O)c1,> 4 mM (inactive)
8,CC(=O)NC1(NC(C)=O)CCN(C)CC1,> 4 mM (inactive)
9,O=c1n(-c2cccc(Cl)c2)c(=O)n2n1CCC2,> 4 mM (inactive)
10,NC1=NC(=O)/C(=C\c2cccc(C(=O)O)c2)S1,> 4 mM (inactive)
11,C=CCc1ccc(O)c(OC)c1,> 4 mM (inactive)
12,COc1cccc(NC(=O)c2cnn(C)c2Cl)c1,> 4 mM (inactive)
13,CN1CCC(NC(=O)c2cccnc2)CC1,> 4 mM (inactive)
14,Cc1nc2cc(NC(=O)Nc3nccs3)ccc2n1C,> 4 mM (inactive)
15,CC(C)(C)C(=O)Nc1ncc(C(F)(F)F)cc1Cl,> 4 mM (inactive)
16,Nc1cccc(OC(F)(F)F)c1,> 4 mM (inactive)
17,Nc1nc2ccc(N3CCOCC3)cc2s1,> 4 mM (inactive)
18,O=NN1C(=O)c2ccccc2C1=O,> 4 mM (inactive)
19,O=c1c(O)c(-c2ccccc2)oc2ccccc12,> 4 mM (inactive)
20,COc1cc(C(C)=O)cc(OC)c1O,> 4 mM (inactive)
21,Nc1nnc(SCc2cccnc2)s1,> 4 mM (inactive)
22,NCc1cn2ccccc2n1,> 4 mM (inactive)
23,Cc1cccc(CSc2nncc(=O)[nH]2)c1,> 4 mM (inactive)

row,SMILES,Kd
1,Cc1ccc(C)n1-c1ccc(C(=O)N2CCOCC2)cc1,> 4 mM (inactive)
2,CSc1nsc(SCc2cnc(C)nc2N)n1,> 4 mM (inactive)
3,NC(=O)C1CCN(c2ncnc(N)c2[N+](=O)[O-])CC1,> 4 mM (inactive)
4,CC(=O)N=c1cccc(NC(C)=O)n1O,> 4 mM (inactive)
5,CN1CCN(c2ccc(C(=O)O)cc2)CC1,> 4 mM (inactive)
6,Cc1cc(=O)oc2cc3c(cc12)OCCO3,> 4 mM (inactive)
7,CCCC(=O)N1CCSCC1,> 4 mM (inactive)
8,NC(=O)CC[C@H](N)C(=O)O,> 4 mM (inactive)
9,Cc1ccccc1C(=O)Nc1cccc(N)c1,> 4 mM (inactive)
10,Cn1c(=O)[nH]c(=O)c2nsnc21,> 4 mM (inactive)
11,O=C(O)CCC(=O)c1cccc2ccccc12,> 4 mM (inactive)
12,N=Nc1c(O)[nH]c2ccccc12,> 4 mM (inactive)
13,CC(=O)NCCc1cc2ccc(C)c(C)c2[nH]c1=O,> 4 mM (inactive)
14,CCC(=O)Nc1cccc(NC(C)=O)c1,> 4 mM (inactive)
15,CNC(=O)C1=NCCCc2cc(OC)c(OC)cc21,> 4 mM (inactive)
16,Nc1nc2n(c1C(=O)c1ccccc1)CCC2,> 4 mM (inactive)
17,Cc1ccc2cc(CO)ccc2n1,> 4 mM (inactive)
18,CSc1nn(-c2ccccc2)c(N)c1C#N,> 4 mM (inactive)
19,Nc1cccc(-n2cccc2)c1,> 4 mM (inactive)
20,CC(C)c1ccc2c(c1O)CC[C@H]1C3=C(CC[C@]21C)C(=O)OC3,> 4 mM (inactive)
21,CC(=O)c1cc(C)ccc1OC(=O)c1cccnc1,> 4 mM (inactive)
22,OCc1cccc2nonc12,> 4 mM (inactive)
23,Cc1c(-c2ccccc2)[n+](=O)c(-c2ccco2)c(C)n1[O-],> 4 mM (inactive)

row,SMILES,Kd
1,Cc1cc(C)n2nc(C(=O)Nc3cccnc3)nc2n1,> 4 mM (inactive)
2,Cc1ccc(S(=O)(=O)CC(=O)N2CCCC2)cc1,> 4 mM (inactive)
3,CC1=C2C(=CO[C@H](C)[C@H]2C)C(=O)C(C(=O)O)=C1O,> 4 mM (inactive)
4,CC1CCN(C(=O)c2cc3ccccc3o2)CC1,> 4 mM (inactive)
5,Nc1ccccc1OC(F)(F)F,> 4 mM (inactive)
6,CC(O)(C(=O)O)c1ccccc1 (configuration not stated),> 4 mM (inactive)
7,OCc1ccncc1,> 4 mM (inactive)
8,CCCCCCCCCCCCCCC(C(=O)OC)C(O)(CC(=O)OC)C(=O)OC (configuration not stated),> 4 mM (inactive)
9,Cc1nc(-c2ccccc2)sc1C(N)=O,> 4 mM (inactive)
10,CC(=O)Nc1ccccc1-c1ccccc1NC(C)=O,> 4 mM (inactive)
11,COn1c(=O)c(-c2ccco2)[n+]([O-])c2ccccc21,> 4 mM (inactive)
12,O=C(c1ccco1)N1C(=O)c2cccc3cccc1c23,> 4 mM (inactive)
13,C=C1CCC(=O)C(C)CCC2C1CC2(C)C (configuration not stated),> 4 mM (inactive)
14,CS(=O)(=O)Nc1ccccc1C(=O)c1ccccc1,> 4 mM (inactive)
15,O=C(CNC(=O)c1cccs1)NC1=NCCS1,> 4 mM (inactive)
16,OCC1CCN(Cc2ccccc2)CC1,> 4 mM (inactive)
17,NCC(O)c1ccc(O)cc1 (configuration not stated),> 4 mM (inactive)
18,CC1(C)CC2(CCO1)NCCN1C(=O)CSC12 (configuration not stated),> 4 mM (inactive)
19,Cc1cc(C)n(CC(=O)NC2CCCCC2)n1,> 4 mM (inactive)
20,S=c1nc[nH]c2c1cnn2-c1ccccc1,> 4 mM (inactive)
21,OCc1ccc(-n2ccnc2)cc1,> 4 mM (inactive)
22,Cc1ccc(OCC(=O)n2cnnc2N)c(C)c1,> 4 mM (inactive)
23,Nc1ccc(OC(F)(F)F)cc1,> 4 mM (inactive)
